Assay results taken from paper PMC3975428, “Dimers of G-Protein Coupled Receptors as Versatile Storage and Response Units” (International Journal of Molecular Sciences, 2014).

Experiments:
[1] = tested on: Y2 receptor (hypothalamic particulates); assay: Rundown of Y2 agonist tracer, anterior hypothalamus; format: biochemical, rabbit; details: 50 pM, 60 min at 25 °C, Ca^2+/Mg^2+ buffer
Excerpt: (§1) Figure 2. Rundown of the Y2 agonist is much faster in tissues with large Gi/o content. […] The rabbit kidney cortex has a much lower expression of Gi/o subunits than the anterior hypothalamus (The Bmax for [^35S]GγS binding is more than 20-fold higher in hypothalamic tissue (ref. [24], Table 2). However, the kidney Y2 receptor is expressed at about four times the level of the hypothalamic. The above parameters in the Ca^2+/Mg^2+ buffer lead to a much faster transduction with hypothalamic particulates (graph A); and a considerable (58%) rundown of the tracer peptide relative to 1 mM EDTA buffer. In the same assay, the relative rundown is only 12% with kidney particulates (graph B).
(§2) The receptors were labeled for 30 min at 25 °C in respective particulates (50 μg protein/assay), employing not more than 50 pM [^125I]-labeled agonist peptides (as stated in individual experiments). Higher molar inputs of agonist peptides would produce significant Gα activation within short exposures (e.g., [24, 53]). The basal assay buffer contained 0.2% proteinase-free bovine serum albumin, 20 mM hepes.NaOH (pH 7.4), 1 mM diisopropylfluorophosphate, 0.04% bacitracin, and 10 μg/mL each of proteinase inhibitors aprotinin, bestatin, chymostatin, leupeptin and pepstatin. Depending on experiment design, this was supplemented by 3 mM CaCl2 and 1 mM MgCl2, (buffer A) or by 1 mM Na EDTA, pH 7.4 (buffer B). […]

[2] = tested on: rabbit kidney Y2 receptor; assay: PYY(3–36) binding to rabbit kidney Y2 receptor (heteropentamer and monomer forms); details: rabbit kidney particulates, digitonin and cholate lysis
Description: The receptors were labeled for 30 min at 25 °C in respective particulates (50 μg protein/assay), employing not more than 50 pM [^125I]-labeled agonist peptides (as stated in individual experiments). […] The basal assay buffer contained 0.2% proteinase-free bovine serum albumin, 20 mM hepes.NaOH (pH 7.4), 1 mM diisopropylfluorophosphate, 0.04% bacitracin, and 10 μg/mL each of proteinase inhibitors aprotinin, bestatin, chymostatin, leupeptin and pepstatin. Depending on experiment design, this was supplemented by 3 mM CaCl2 and 1 mM MgCl2, (buffer A) or by 1 mM Na EDTA, pH 7.4 (buffer B). The nucleotide site labeling at 200 pM [^35S]GγS was for 30 min at 28 °C after pre-activation for 30 min at 28 °C at 3 μM GDP in the basal buffer with 50 μM EDTA, 100 mM NaCl and 4 mM MgCl2, and without CaCl2 (buffer C). All subsequent operations were carried out at 0–5 °C. The assays were terminated by sedimentation for 10 min at 30,000× gmax, followed by surface wash of the pellets.

[3] = tested on: Y2 receptor (rabbit kidney cortex particulates); assay: Rundown of Y2 agonist tracer, kidney cortex; format: biochemical; details: 50 pM, 60 min at 25 °C, Ca^2+/Mg^2+ buffer
Excerpt: as §1
as §2, with “Higher” for “The receptors were labeled for 30 min at 25 °C in respective particulates (50 μg protein/assay), employing not more than 50 pM [^125I]-labeled agonist peptides (as stated in individual experiments). Higher”

[4] = tested on: Y2 receptor dimers (CHO cells); assay: Dimer content of Y2 receptors labeled by [^125I]PYY(3–36) in density gradients; format: binding, human receptor in CHO cells; details: duplicate gradients; for dimer content: labeled 30 min at 25 °C; for content of dimer: particulates from CHO cells, labeled 20 min at 27 °C
Description: Figure 1. Stability of agonist-labeled Y2 receptor dimers to incubation at 27 °C and to removal of divalent cations. Duplicate 5%–20% gradients (see Section 3.3) were centrifuged for 18 h at 5 °C. All results are average percentages of total counts in the corresponding gradient fractions from two gradients for each condition. The respective standard errors were in most cases below 10%, and for clarity are not shown. (A) Y2 receptor dimers in particulates from CHO cells are stable to incubation at 27 °C. The incubation of particulate suspension in the assay buffer at 27 °C was for 1 h (followed by 2 h at 0–4 °C) or 3 h, while the control suspension was incubated in ice for 3 h. […] The content of dimer, in % total gradient counts, was 66.2 ± 3.7 for 4 °C control, 63.4 ± 3.4 after preincubation for 1 h at 27 °C, and 64.3 ± 3.4 after preincubation for 3 h at 27 °C; (B) Y2 receptor dimers are not disbanded by removal of divalent cations.
(§3) Higher molar inputs of agonist peptides would produce significant Gα activation within short exposures (e.g., [24, 53]). The basal assay buffer contained 0.2% proteinase-free bovine serum albumin, 20 mM hepes.NaOH (pH 7.4), 1 mM diisopropylfluorophosphate, 0.04% bacitracin, and 10 μg/mL each of proteinase inhibitors aprotinin, bestatin, chymostatin, leupeptin and pepstatin. Depending on experiment design, this was supplemented by 3 mM CaCl2 and 1 mM MgCl2, (buffer A) or by 1 mM Na EDTA, pH 7.4 (buffer B). The nucleotide site labeling at 200 pM [^35S]GγS was for 30 min at 28 °C after pre-activation for 30 min at 28 °C at 3 μM GDP in the basal buffer with 50 μM EDTA, 100 mM NaCl and 4 mM MgCl2, and without CaCl2 (buffer C). All subsequent operations were carried out at 0–5 °C. The assays were terminated by sedimentation for 10 min at 30,000× gmax, followed by surface wash of the pellets.
(§4) Rabbit kidney postmitochondrial particulates, rabbit piriform cortex and hypothalamic crude synaptosomes and CHO cell postnuclear particulates were prepared as described previously. After solubilization of particulates at 10 mM each of digitonin and sodium cholate in buffer A or B, the lysates were spun for 10 min at 1000× g to remove debris, and the supernatants sedimented for periods indicated in figure captions at 218,000× gmax through linear 5%–20% sucrose gradients (10 mL, made in buffer A). The gradients were divided by bottom dripping in 23 fractions of 0.45 mL. The sedimentation positions were calibrated with [^125I]-labeled bovine γ-globulin (158 kDa), human iron-saturated transferrin (75 kDa) and ovalbumin (44 kDa), and with colorized myosin (211 kDa), producing a linear relation of migration to molecular weight (R^2 > 0.99).

Gi/o subunits = details: hypothalamic vs. rabbit kidney cortex; Table 2; cited from earlier work
Excerpt: Figure 2. Rundown of the Y2 agonist is much faster in tissues with large Gi/o content. […] The rabbit kidney cortex has a much lower expression of Gi/o subunits than the anterior hypothalamus (The Bmax for [^35S]GγS binding is more than 20-fold higher in hypothalamic tissue (ref. [24], Table 2). However, the kidney Y2 receptor is expressed at about four times the level of the hypothalamic. The above parameters in the Ca^2+/Mg^2 ...

[5] = tested on: Y2 receptor aggregates (rabbit kidney); assay: Y2 receptor aggregates, sedimentation after treatment, rabbit kidney particulates; format: biochemical; details: 15 min at 24 °C
Description: (§5) Figure 5. […] Particulates from rabbit kidney (A) and anterior hypothalamus (B) were incubated with 20 μM GγS or 10 μM U73122 for 15 min at 24 °C, sedimented, resuspended, labeled with 50 pM [^125I]hPYY(3–36) for 15 min at 24 °C, resedimented, lysed at 10 mM each digitonin and cholate and sedimented through a 10%–30% linear sucrose gradient for 6 h at 218,000× g and 5 °C, followed by gradient fractionation and counting. TEXT PRINTED IN THE PICTURE: (A) GγS: Bottom count: 10.8% | (A) U73122: Bottom count: 25.4% | (B) GγS: Bottom count: 8.98 % | (B) U73122: Bottom count: 17.4 %
as §4

[6] = tested on: 180 kDa heteropentamer (Y2 receptor dimer, G-protein trimer); assay: Nucleotide labeling / conversion of 180 kDa heteropentamer to 90 kDa Gi3α-receptor monomer; format: biochemical
Description: as §3, with “The receptors were labeled for 30 min at 25 °C in respective particulates (50 μg protein/assay), employing not more than 50 pM [^125I]-labeled agonist peptides (as stated in individual experiments). Higher” for “Higher”
as §4, with “0.99). […]” for “0.99).”

G-protein α subunit = assay: Stability of GγS labeling; format: biochemical; details: 4 °C
Description: as §3, with “The receptors were labeled for 30 min at 25 °C in respective particulates (50 μg protein/assay), employing not more than 50 pM [^125I]-labeled agonist peptides (as stated in individual experiments). Higher” for “Higher”

[7] = tested on: aggregated Y2 receptor material (rabbit kidney and CHO-Y2 particulates); assay: Release of aggregated Y2 receptor material (bottom of 5%–20% gradients); format: biochemical; details: 20 μM
Description: More than 30% of the Y2 binding in rabbit kidney postmitochondrial particulates, and more than 20% in the CHO-Y2 postnuclear particulates sediments to the bottom of 5%–20% sucrose gradients over 18 h at 218,000× gmax, corresponding to weight in excess of 1000 kDa. A large part of this material sediments at 30,000× gmax over 10 min, and could be considered as aggregated. […] This preliminary experiment points to potential of such procedures in quantitation of effector-associated receptors at the level of dimers and monomers. There also is a promise of gaining more insight on the size and significance of receptor oligomers incorporating more than two receptor monomers.
as §4

[8] = tested on: Y2 receptor aggregates (anterior hypothalamus); assay: Y2 receptor aggregates, sedimentation after treatment, rabbit anterior hypothalamus particulates; format: biochemical; details: 20 μM, 15 min at 24 °C, 10%–30% gradient 6 h at 218,000× g
Description: as §5
as §4, with “The sedimentation positions were calibrated with [^125I]-labeled bovine γ-globulin (158 kDa), human iron-saturated transferrin (75 kDa) and ovalbumin (44 kDa), and with colorized myosin (211 kDa), producing a linear relation of migration to molecular weight (R^2 > 0.99).” left out

[9] = tested on: 180 kDa heteropentamer and 90 kDa monomer-Gi α of Y2 receptor; details: 10 mM CHAPS, cited from earlier work
Excerpt: The stability and affinity of agonist association with CHO-Y2 receptors could also be analyzed at the level of dimers and monomers by extraction and precipitation procedures coupled to competition binding assays (Figure 6). […] The 180 kDa labeled material is not sensitive to ...

[10] = tested on: neuropeptide Y (NPY) receptor dimers; details: cited from earlier work
Excerpt: The most studied and probably the most frequent complexes of eukaryotic heptahelical receptors are those with G-protein αβγ heterotrimers. With many GPCR dimers these assemblies survive solubilization by steroid detergents such as digitonin and cholate and could be detected as ~180 kDa heteropentamers by density gradient centrifugation ([15, 16]; see also Figure 1 in this study) and also can be solubilized by acylamine oxide surfactants such as lauryldimethylamine oxide (LDAO) and detected by circular dichroism spectroscopy. The frequently used zwitterionic detergents, e.g., CHAPS (3 ...

CHO-Y2 dimers = details: ADP-ribosylation of Gi type α subunits; cited from earlier work
Excerpt: (§6) This could be of interest in many physiological conditions. The loss of CHO-Y1 and CHO-Y2 dimers due to neutralization of Gi type α subunits through ADP-ribosylation by pertussis toxin [16, 29] could be viewed as a constitutive equivalent of the reduction shown in Figure 4. In conditions of normal Gi utilization in CHO-Y2, the di ...

CHO-Y1 dimers = details: ADP-ribosylation of Gi type α subunits; cited from earlier work
Excerpt: as §6

NPY receptor dimers = details: via ADP-ribosylation of Gαi subunits; cited from earlier work
Excerpt: The virtues of oligomerization for GPCRs are many. Oligomers would have much larger ability than monomers to anchor to the membranes, rafts and vesicles. Protein (including the receptor) removal by particulate (proteasomal and/or lysosomal) proteolysis is found to be much less for dimers compared to monomers, as is also observed for enzyme carriers. This is dramatically confirmed by elimination of NPY receptor dimers by pertussis toxin via ADP-ribosylation of Gαi subunits. Association with transducers and effectors could also be enhanced for the dimers. Chances ...

For “[^125I]PYY(3–36): Monoiodinated HPLC-purified [^125I]human PYY(3–36), labeled Y2 agonist”, which “rundown of the tracer peptide relative to 1 mM EDTA buffer” value [1] is on record?
The value was 58%.

And the “degradation of the receptor-bound tracer” value [2]?
Its value is “very low”.

What about the “rundown of the tracer peptide relative to 1 mM EDTA buffer” value [3] of the same compound?
Its value is 12%.

And the dimer content ([4]; buffer A (3 mM CaCl2, 1 mM MgCl2))?
The dimer content was 65.9 ± 4.7 % gradient counts.

What about the dimer content ([4]; buffer B (1 mM Na EDTA, divalent cations removed)) of the same compound?
Its dimer content is 60.8 ± 4.6 % gradient counts.

What about the content of dimer ([4]; 4 °C control (3 h in ice)) of the same compound?
The content of dimer was 66.2 ± 3.7 % total gradient counts.

And the content of dimer ([4]; preincubation 1 h at 27 °C (then 2 h at 0–4 °C))?
The content of dimer was 63.4 ± 3.4 % total gradient counts.

And the content of dimer ([4]; preincubation 3 h at 27 °C)?
Its content of dimer is 64.3 ± 3.4 % total gradient counts.

With `Nc1nc2c(ncn2C2OC(COP(=O)(O)OP(=O)(O)OP(O)(O)=[35S])C(O)C2O)c(=O)[nH]1` (centres unmarked) [[^35S]GγS, [^35S]guanosine 5′-(γ-thio)triphosphate] as the compound, how does the “Bmax for binding, hypothalamic relative to kidney tissue” value (Gi/o subunits) read?
Its value is “more than 20 fold”.

Which results are given for `Nc1nc2c(ncn2[C@@H]2O[C@H](COP(=O)(O)OP(=O)(O)OP(O)(O)=S)[C@@H](O)[C@H]2O)c(=O)[nH]1` [GγS, Guanosine 5′-O-(γ-thiotriphosphate)]?
main form yielded from Y2 receptor aggregates ([5]; particulates from rabbit tissues (kidney and anterior hypothalamus), GγS 20 μM or U73122 10 μM): mainly Gi-Y2 monomer; Bottom count ([5]; rabbit kidney, 20 μM, 10%–30% gradient 6 h at 218,000× g): 10.8%; labeling of G-protein trimer in 180 kDa heteropentamer [6]: not labeled; conversion of 180 kDa heteropentamer ([6]; 1–5 mM Mg^2+, micromolar GDP or GγS): does convert to immunoprecipitable 90 kDa Gi3α-receptor monomer; stability of G-protein α subunit labeling (G-protein α subunit): stable at 4 °C; form of released material [7]: largely in the form of activated monomers; part of aggregated material released [7]: A considerable part; Bottom count [8]: 8.98%

What does the source list for `C[C@H](CCC(=O)NCCC[N+](C)(C)CCCS(=O)(=O)[O-])[C@H]1CC[C@H]2[C@@H]3[C@H](O)C[C@@H]4C[C@H](O)CC[C@]4(C)[C@H]3C[C@H](O)[C@]12C` [CHAPS, 3-[3-cholamidopropyldimethylammonio]-1-propanesulfonate]?
sensitivity of 180 kDa binding ([9]; relative to 90 kDa zone): much less sensitive; effect on 90 kDa zone agonist binding [9]: completely dissociates; effect on NPY receptor dimers [10]: tend to destabilize

With pertussis toxin as the compound, how does the “effect on CHO-Y2 dimers” value (CHO-Y2 dimers) read?
Its value is “loss”.

And the “effect on CHO-Y1 dimers” value (CHO-Y1 dimers)?
The value was “loss”.

What about the “effect on NPY receptor dimers” value (NPY receptor dimers) of the same compound?
Its value is “elimination”.
